Reference: the supplement of paper PMC11127212

Assays:
[1] = retention time on BEH HILIC column (20 min gradient, 0.4 mL/min); higher = later elution; conditions: LC: HILIC
Method: (§1)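 Reference standards (20-100 uM) were separated by HILIC UPLC (BEH HILIC, 45 °C): acidic pH 3.0 ammonium formate/formic acid for ESI+ and basic pH 9.0 ammonium acetate/ammonia for ESI-. They were analysed on a Synapt G2-Si traveling-wave IMS-QTOF with nitrogen drift gas (WH 30 V; WV 800 m/s in ESI+ and 1000 m/s in ESI-).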

[2] = collision cross section (TWIMS, N2) of ion [M-H]-; higher = larger gas-phase ion cross section; conditions: ionization: ESI negative; LC: HILIC, pH 9.0 ammonium acetate
Method: as §1

[3] = collision cross section (TWIMS, N2) of ion [M+Na]+; higher = larger gas-phase ion cross section; conditions: ionization: ESI positive; LC: HILIC, pH 3.0 ammonium formate
Method: as §1, with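 “ESI-). CCS (TWCCSN2, Å2) was calibrated with Major Mix IMS/TOF and LockCCS leucine enkephalin; inter-day RSD was <1%.” for “ESI-).”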

[4] = ionization: ESI negative, pH 9.0 ammonium acetate
[5] = ionization: ESI positive, pH 3.0 ammonium formate

| retention time on BEH HILIC column [1, 4] [min] | retention time on BEH HILIC column [1, 5] [min] | collision cross section [2] [Å²] | collision cross section [3] [Å²] | SMILES |
| --- | --- | --- | --- | --- |
| 0.75 | 0.75 | 151.28 | 143.53 | CCCCCCCCCC(=O)O [Capric acid] |
| 7.95 | 6.68 | 171.3 | 175.45 | OC[C@H]1O[C@H](O[C@H]2[C@H](O)[C@H](O)[C@@H](O)O[C@@H]2CO)[C@H](O)[C@@H](O)[C@@H]1O [D-maltose] |
| 0.73 | 0.75 | 184.42 | 186.65 | CCCCCCCCCCCCCCCCCC(=O)O [Stearic acid] |
|  | 3.49 |  | 140.11 | OC[C@H]1O[C@](O)(CO)[C@@H](O)[C@@H]1O [D-fructose] |
| 0.95 | 0.75 | 139.96 | 151.23 | CCOC(=O)CC(C)C(=O)OCC (stereo not drawn) [Diethyl methylsuccinate] |
| 12.1 | 11.6 | 131.08 | 137.94 | O=C[C@H](O)COP(=O)(O)O [D-glyceraldehyde 3-phosphate] |
| 0.9 | 0.93 | 143.64 | 161.96 | COc1cc(/C=C/C(=O)O)ccc1O [trans-ferulic acid] |
| 0.73 | 0.79 | 193.88 | 198.31 | CCCCCCCCCCCCCCCCCCCC(=O)O [Arachidic acid] |
| 12.1 | 9.32 | 148.86 | 154.07 | O=P(O)(O)OC[C@H]1OC(O)[C@H](O)[C@@H](O)[C@@H]1O (stereo partly drawn) [Glucose 6-phosphate] |
| 11.9 | 8.86 | 146.38 | 151.18 | O=C(CO)[C@@H](O)[C@H](O)[C@H](O)COP(=O)(O)O [Fructose 6-phospahte] |
| 4.6 | 4.7 | 133.44 | 140.03 | OC[C@@H](O)[C@@H](O)[C@H](O)[C@@H](O)CO [Sorbitol] |
| 4.75 | 4.8 | 134.82 | 140.03 | OC[C@@H](O)[C@@H](O)[C@H](O)[C@H](O)CO [Mannitol] |
| 0.67 | 0.88 | 129.47 | 138.25 | CC(=O)Oc1ccc(O)cc1 [4-hydroxyphenyl acetate] |
|  |  | 138.92 | 146.99 | O=C(O)CC(O)c1cccc(O)c1 (stereo not drawn) [3-(3-hydroxyphenyl)-3-hydroxypropanoic acid] |
| 0.73 | 0.77 | 188.17 | 190.13 | CCCCCCCCCCCCCCCCCCC(=O)O [Nonadecanoic acid] |
|  | 1.08 |  | 140.74 | O=C(O)C(CO)c1ccccc1 (stereo not drawn) [Tropate] |
| 2.23 | 2.23 | 118.87 | 138.79 | O=C(O)/C=C(\CC(=O)O)C(=O)O [trans-aconitic acid] |
| 0.77 | 0.72 | 170.14 | 179.96 | CCCCCCCCCCCCCCCC(=O)O [Palmitic acid] |
| 1.8 | 1.56 | 126.16 | 136.32 | NC(=O)NC1NC(=O)NC1=O (stereo not drawn) [Allantoin] |
|  | 2 |  | 131.78 | OC1OC[C@@H](O)[C@H](O)[C@H]1O (stereo partly drawn) [D-xylose] |
| 5.92 | 5.84 | 133.54 | 146 | O[C@H]1[C@H](O)[C@@H](O)[C@H](O)[C@@H](O)[C@H]1O [myo-inositol] |

| retention time on BEH HILIC column [1, 4] [min] | retention time on BEH HILIC column [1, 5] [min] | collision cross section [2] [Å²] | collision cross section [3] [Å²] | SMILES |
| --- | --- | --- | --- | --- |
|  | 3.25 |  | 135.32 | O=C[C@H](O)[C@H](O)[C@H](O)[C@@H](O)CO [L-talose] |
| 5.43 | 3.87 | 132.14 | 140.11 | OC[C@H]1O[C@H](O)[C@@H](O)[C@@H](O)[C@@H]1O [D-mannose] |
| 4.84 | 5.56 | 133.44 | 140.03 | OC[C@@H](O)[C@H](O)[C@H](O)[C@@H](O)CO [Galactitol] |
| 3.07 | 3.12 | 128.72 | 129.97 | O=C(O)c1ccc(CO)o1 [Sumiki's acid] |
| 0.73 | 0.82 | 197.18 | 204.26 | CCCCCCCCCCCCCCCCCCCCCC(=O)O [Behenic acid] |
| 0.73 | 0.75 | 179.98 | 174.95 | CCCCC/C=C\C/C=C\CCCCCCCC(=O)O [Linoleic acid] |
| 3.57 | 2.85 | 126.54 | 133.34 | OC[C@@H](O)[C@@H](O)[C@@H](O)CO [Ribitol] |
| 1.58 | 1.71 | 121.34 | 131.78 | OC[C@H]1OC(O)[C@H](O)[C@@H]1O (stereo partly drawn) [D-ribose] |
| 2.8 | 2.24 | 126.73 | 139.19 | O=C(O)/C=C(/CC(=O)O)C(=O)O [cis-aconitic] |
| 0.9 | 0.77 | 135.55 | 134.35 | CCCCCCC(=O)O [Heptanoic acid] |
| 3.16 | 3.12 | 126.54 | 133.34 | OC[C@@H](O)C(O)[C@H](O)CO [D-arabitol] |
| 6.6 | 6.77 | 169.11 | 171.56 | OC[C@H]1O[C@@](CO)(O[C@H]2O[C@H](CO)[C@@H](O)[C@H](O)[C@H]2O)[C@@H](O)[C@@H]1O [Sucrose] |
| 3.16 | 3.16 | 128.01 | 133.34 | OC[C@@H](O)[C@H](O)[C@@H](O)CO [D-xylitol] |
| 0.9 | 1.25 | 129.59 | 130.13 | CCCCCC(=O)O [Caproic acid] |
| 0.8 | 1 | 139.96 | 145.99 | O=C(O)CCCCCCCC(=O)O [Azelaic acid] |
|  | 3.02 |  | 136.93 | OC[C@@]1(O)OC[C@@H](O)[C@H](O)[C@@H]1O [D-tagalose] |
| 6.83 | 6.7 | 171.26 | 174.13 | OC[C@@H](O)[C@@H](O[C@H]1O[C@H](CO)[C@@H](O)[C@H](O)[C@H]1O)[C@H](O)[C@@H](O)CO [Maltitol] |
|  | 2.08 |  | 128.38 | OC[C@@H](O)[C@@H](O)CO [Erythritol] |
|  | 3.88 |  | 143.24 | OC[C@H]1O[C@@H](O)[C@H](O)[C@@H](O)[C@@H]1O [D-glucose] |
|  | 2.28 |  | 131.78 | O[C@H]1[C@H](O)[C@H](O)OC[C@H]1O [D-arabinose] |
|  | 4.2 |  | 138.53 | OC[C@H]1O[C@H](O)[C@H](O)[C@@H](O)[C@H]1O [D-galactose] |
